From patent US9518046B2 (Calitor Sciences, LLC, priority 2015, dated 2016) come the findings set out here.

A short description of the first data set: Pharmacokinetics after intravenous and oral administration in rats. In kind it is in vivo. To be noted: Rats; iv dosing; dose 1 mg/kg (0.5 for Ex. 1, 10, 11, 35; 0.48 for Ex. 24). The method, then:
The LC/MS/MS system used in the analysis consists of an Agilent 1200 Series vacuum degasser, binary pump, well-plate autosampler, thermostatted column compartment, the Agilent G6430 Triple Quadrupole Mass Spectrometer with an electrosprayionization (ESI) source. Quantitative analysis was carried out using MRM mode. The parameters for MRM transitions are in the Table A.
An Agilent XDB-C18, 2.1×30 mm, 3.5 M column was used for the analysis. 5 L of the samples were injected. Analysis condition: The mobile phase was 0.1% formic acid in water (A) and 0.1% formic acid in methanol (B). The flow rate was 0.4 mL/min. And the gradient of Mobile phase was in the Table B.
Alternatively, an Agilent 6330 series LC/MS/MS spectrometer equipped with G1312A binary pumps, a G1367A autosampler and a G1314C UV detector were used in the analysis. An ESI source was used on the LC/MS/MS spectrometer. The analysis was done in positive ion mode as appropriate and the MRM transition for each analyte was optimized using standard solution. A Capcell MP-C18 100×4.6 mm I.D., […] column (Phenomenex, Torrance, Calif., USA) was used during the analysis. The mobile phase was 5 mM ammonia acetate, 0.1% MeOH in water (A): 5 mM ammonia acetate, 0.1% MeOH in acetonitrile (B) (70:30, v/v). The flow rate was 0.6 mL/min. Column was maintained at ambient temperature. 20 μL of the samples were injected.
The compounds disclosed herein are assessed in pharmacokinetic studies in mice, rats, dogs or monkeys. The compounds are administered as a water solution, 2% HPMC+1% TWEEN®80 in water solution, 5% DMSO+5% solutol in saline, 4% MC suspension or capsule. For the intravenous administration, the animals are generally given at 1 or 2 mg/kg dose. For the oral (p.o.) dosing, mice and rats are generally given 5 or 10 mg/kg dose, and dogs and monkeys are generally given 10 mg/kg dose. The blood samples (0.3 mL) are drawn at 0.25, 0.5, 1.0, 2.0, 3.0, 4.0, 6.0, 8.0, 12 and 24 h time points or 0.083, 0.25, 0.5, 1.0, 2.0, 4.0, 6.0, 8.0 and 24 h time points and centrifuged at 3,000 or 4000 rpm for 2 to 10 min. The plasma solutions are collected, stored at −20° C. or −70° C. until analyzed by LC/MS/MS as described above.
The CL/F is clearance divided by bioavailability, as obtained after extravascular dosing. In turn, `CC[C@H](Nc1ncnc(N)c1-c1ncn(C)n1)c1nc2cccc(Cl)c2c(=O)n1-c1ccccc1` [Ex. 32, (S)-2-(1-((6-amino-5-(1-methyl-H-1,2,4-triazol-3-yl)pyrimidin-4-yl)amino)-propyl)-5-chloro-3-phenylquinazolin-4(3H)-one] displayed a CL/F of 43.3 mL/min/kg.

Take `Cc1nc(-c2c(N)ncnc2N[C@@H](C)c2nc3cccc(Cl)c3c(=O)n2C2CC2)no1` [Ex. 33, (S)-2-(1-((6-amino-5-(5-methyl-1,2,4-oxadiazol-3-yl)pyrimidin-4-yl)amino)-ethyl)-5-chloro-3-cyclopropylquinazolin-4(3H)-one]: the CL/F turned out to be 65.5 mL/min/kg.

`CC[C@H](Nc1ncnc(N)c1-c1nnc(C)o1)c1nc2cccc(Cl)c2c(=O)n1-c1ccccc1C` [Ex. 35, (S)-2-(1-((6-amino-5-(5-methyl-1,3,4-oxadiazol-2-yl)pyrimidin-4-yl)-amino)propyl)-5-chloro-3-(o-tolyl)quinazolin-4(3H)-one] yielded a CL/F of 53 mL/min/kg. The CL/F values of the last two compounds are within 1.5-fold of each other.

`CC[C@H](Nc1ncnc(N)c1-c1nc(C)no1)c1nc2cccc(C)c2c(=O)n1-c1ccccc1` [Ex. 37, (S)-2-(1-((6-amino-5-(3-methyl-1,2,4-oxadiazol-5-yl)pyrimidin-4-yl)amino)-propyl)-5-methyl-3-phenylquinazolin-4(3H)-one] registered a CL/F of 67.5 mL/min/kg.

In the case of `CC[C@H](Nc1ncnc(N)c1-c1nnc(C)o1)c1nc2cccc(C)c2c(=O)n1-c1ccccc1` [Ex. 38, (S)-2-(1-((6-amino-5-(5-methyl-1,3,4-oxadiazol-2-yl)pyrimidin-4-yl)amino)-propyl)-5-methyl-3-phenylquinazolin-4(3H)-one], the CL/F worked out at 71.3 mL/min/kg.

For `CC[C@H](Nc1ncnc(N)c1-c1nc(C)no1)c1nc2cccc(F)c2c(=O)n1-c1ccccc1` [Ex. 39, (S)-2-(1-((6-amino-5-(3-methyl-1,2,4-oxadiazol-5-yl)pyrimidin-4-yl)amino)-propyl)-5-fluoro-3-phenylquinazolin-4(3H)-one], the CL/F turned out to be 51.8 mL/min/kg.

`CC[C@H](Nc1ncnc(N)c1-c1nnc(C)o1)c1nc2cccc(F)c2c(=O)n1-c1ccccc1` [Ex. 40, (S)-2-(1-((6-amino-5-(5-methyl-1,3,4-oxadiazol-2-yl)pyrimidin-4-yl)amino)-propyl)-5-fluoro-3-phenylquinazolin-4(3H)-one]: the CL/F came out at 57.3 mL/min/kg.

`Cc1noc(-c2c(N)ncnc2N[C@@H](C)c2nc3cccc(Cl)c3c(=O)n2C2CC2)n1` [Ex. 41, (S)-2-(1-((6-amino-5-(3-methyl-1,2,4-oxadiazol-5-yl)pyrimidin-4-yl)amino)-ethyl)-5-chloro-3-cyclopropylquinazolin-4(3H)-one] came in with a CL/F of 84.3 mL/min/kg.

Consider `C[C@H](Nc1ncnc(N)c1-c1nnn(C)n1)c1nc2cccc(Cl)c2c(=O)n1C1CC1` [Ex. 42, (S)-2-(1-((6-amino-5-(2-methyl-2H-tetrazol-5-yl)pyrimidin-4-yl)amino)ethyl)-5-chloro-3-cyclopropylquinazolin-4(3H)-one], for which the CL/F is 82 mL/min/kg. This CL/F and that of the compound before are within 1.5-fold of each other.

`CC[C@H](Nc1ncnc(N)c1-c1nnn(C)n1)c1nc2cccc(F)c2c(=O)n1-c1ccccc1` [Ex. 43, (S)-2-(1-((6-amino-5-(2-methyl-2H-tetrazol-5-yl)pyrimidin-4-yl)amino)-propyl)-5-fluoro-3-phenylquinazolin-4(3H)-one] returned a CL/F of 36.8 mL/min/kg.

As for `C[C@H](Nc1ncnc(N)c1-c1ncn(C)n1)c1nc2cccc(Cl)c2c(=O)n1C1CC1` [Ex. 44, (S)-2-(1-((6-amino-5-(1-methyl-1H-1,2,4-triazol-3-yl)pyrimidin-4-yl)amino)-ethyl)-5-chloro-3-cyclopropylquinazolin-4(3H)-one], the CL/F came to 73.7 mL/min/kg.

`CC[C@H](Nc1ncnc(N)c1-c1nc(COC)n(C)n1)c1nc2cccc(Cl)c2c(=O)n1C1CC1` [Ex. 46]: the CL/F is 55.8 mL/min/kg. The CL/F values of the last two compounds are within 1.5-fold of each other.

Consider `CC[C@H](Nc1ncnc(N)c1-c1ccon1)c1nc2cccc(F)c2c(=O)n1C1CC1` [Ex. 48, (S)-2-(1-((6-amino-5-(isoxazol-3-yl)pyrimidin-4-yl)amino)propyl)-3-cyclopropyl-5-fluoroquinazolin-4(3H)-one], for which the apparent clearance CL/F came out at 67.3 mL/min/kg.

`CC[C@@H](Nc1ncnc(N)c1-c1ccon1)c1nc2cccc(Cl)c2c(=O)n1C1CC1` [Ex. 49, (R)-2-(1-((6-amino-5-(isoxazol-3-yl)pyrimidin-4-yl)amino)propyl)-5-chloro-3-cyclopropylquinazolin-4(3H)-one] displayed a CL/F of 85.3 mL/min/kg.

The compound `CC[C@H](Nc1ncnc(N)c1-c1ncn(C)n1)c1nc2cccc(Cl)c2c(=O)n1-c1ccc(F)cc1` [Ex. 50, (S)-2-(1-((6-amino-5-(1-methyl-1H-1,2,4-triazol-3-yl)pyrimidin-4-yl)amino)propyl)-5-chloro-3-(4-fluorophenyl)quinazolin-4(3H)-one] gave a CL/F of 86.7 mL/min/kg.

For the compound `CC[C@H](Nc1ncnc(N)c1-c1ccn(C)n1)c1nc2cccc(Cl)c2c(=O)n1C1CC1` [Ex. 51, (S)-2-(1-((6-amino-5-(1-methyl-1H-pyrazol-3-yl)pyrimidin-4-yl)amino)propyl)-5-chloro-3-cyclopropylquinazolin-4(3H)-one], the CL/F was 27.3 mL/min/kg.

With `CC[C@H](Nc1ncnc(N)c1-c1nc(C)co1)c1nc2cccc(Cl)c2c(=O)n1C1CC1` [Ex. 52, (S)-2-(1-((6-amino-5-(4-methyloxazol-2-yl)pyrimidin-4-yl)amino)propyl)-5-chloro-3-cyclopropylquinazolin-4(3H)-one], the CL/F amounted to 85.7 mL/min/kg.

The compound `CC[C@H](Nc1ncnc(N)c1-c1ncn(C)n1)c1nc2cccc(Cl)c2c(=O)n1C1CC1` [Ex. 53, (S)-2-(1-((6-amino-5-(1-methyl-1H-1,2,4-triazol-3-yl)pyrimidin-4-yl)amino)-propyl)-5-chloro-3-cyclopropylquinazolin-4(3H)-one] showed a CL/F of 38.2 mL/min/kg. This CL/F lies about 2.2-fold lower than the previous one.

As for `CCc1noc(-c2c(N)ncnc2N[C@@H](CC)c2nc3cccc(Cl)c3c(=O)n2C2CC2)n1` [Ex. 56, (S)-2-(1-((6-amino-5-(3-ethyl-1,2,4-oxadiazol-5-yl)pyrimidin-4-yl)amino)-propyl)-5-chloro-3-cyclopropylquinazolin-4(3H)-one], the CL/F was found to be 74.7 mL/min/kg.

Compound `CC(C)c1noc(-c2c(N)ncnc2N[C@@H](C)c2nc3cccc(Cl)c3c(=O)n2C2CC2)n1` [Ex. 57, (S)-2-(1-((6-amino-5-(3-isopropyl-1,2,4-oxadiazol-5-yl)pyrimidin-4-yl)amino)-ethyl)-5-chloro-3-cyclopropylquinazolin-4(3H)-one] displayed a CL/F of 83 mL/min/kg.

With `CC[C@H](Nc1ncnc(N)c1-c1nc(C(N)=O)n(C)n1)c1nc2cccc(Cl)c2c(=O)n1C1CC1` [Ex. 58, (S)-3-(4-amino-6-((1-(5-chloro-3-cyclopropyl-4-oxo-3,4-dihydroquinazolin-2-yl)propyl)amino)pyrimidin-5-yl)-1-methyl-1H-1,2,4-triazole-5-carboxamide], the CL/F was 26.2 mL/min/kg.

`CC(C)c1nc(-c2c(N)ncnc2N[C@@H](C)c2nc3cccc(Cl)c3c(=O)n2C2CC2)no1` [Ex. 59, (S)-2-(1-((6-amino-5-(5-isopropyl-1,2,4-oxadiazol-3-yl)pyrimidin-4-yl)amino)ethyl)-5-chloro-3-cyclopropylquinazolin-4(3H)-one]: the CL/F turned out to be 73.7 mL/min/kg.

In turn, `CCc1nc(-c2c(N)ncnc2N[C@@H](C)c2nc3cccc(Cl)c3c(=O)n2C2CC2)no1` [Ex. 61, (S)-2-(1-((6-amino-5-(5-ethyl-1,2,4-oxadiazol-3-yl)pyrimidin-4-yl)amino)ethyl)-5-chloro-3-cyclopropylquinazolin-4(3H)-one] returned a CL/F of 97.5 mL/min/kg.

Take `CC[C@H](Nc1ncnc(N)c1-c1nc(C)no1)c1nc2cccc(Cl)c2c(=O)n1[C@@H]1C[C@@H]1F` [Ex. 62]: the CL/F came to 71.8 mL/min/kg.

As to `CC[C@H](Nc1ncnc(N)c1-c1nnc(C)o1)c1nc2cccc(-c3cnn(C)c3)c2c(=O)n1-c1ccccc1` [Ex. 73, (S)-2-(1-((6-amino-5-(5-methyl-1,3,4-oxadiazol-2-yl)pyrimidin-4-yl)amino)propyl)-5-(1-methyl-1H-pyrazol-4-yl)-3-phenylquinazolin-4(3H)-one], the apparent clearance (CL/F) was found to be 20.7 mL/min/kg. This CL/F is about 3.5-fold lower than that of the compound before.

The data set is the same for the next values; noted with them: rat, plasma, iv, 1 mg/kg.
The term AUC(0-t) denotes exposure summed from dosing to a finite time, without extrapolation to infinity. Lower therefore signals less exposure. The term half-life denotes the time in which the quantity being followed falls by half. In turn, `CC[C@H](Nc1ncnc(N)c1-c1nnc(C)o1)c1nc2cccc(-c3cnn(C)c3)c2c(=O)n1-c1ccccc1` [Ex. 73, (S)-2-(1-((6-amino-5-(5-methyl-1,3,4-oxadiazol-2-yl)pyrimidin-4-yl)amino)propyl)-5-(1-methyl-1H-pyrazol-4-yl)-3-phenylquinazolin-4(3H)-one] had an AUC(0-t) of 807 ng·h/mL and a half-life of 51 min.

The data set is the same for the next values; noted with them: rat, plasma, iv, 1 mg/kg; read-out: Vss.
Turning to `CC[C@H](Nc1ncnc(N)c1-c1nnc(C)o1)c1nc2cccc(-c3cnn(C)c3)c2c(=O)n1-c1ccccc1` [Ex. 73, (S)-2-(1-((6-amino-5-(5-methyl-1,3,4-oxadiazol-2-yl)pyrimidin-4-yl)amino)propyl)-5-(1-methyl-1H-pyrazol-4-yl)-3-phenylquinazolin-4(3H)-one], the Vd worked out at 1.44 L/kg.

The same data set, now with this note: rat, plasma; Rats; oral (p.o.) generally 5 or 10 mg/kg versus iv dosing.
With `CC[C@H](Nc1ncnc(N)c1-c1nnc(C)o1)c1nc2cccc(-c3cnn(C)c3)c2c(=O)n1-c1ccccc1` [Ex. 73, (S)-2-(1-((6-amino-5-(5-methyl-1,3,4-oxadiazol-2-yl)pyrimidin-4-yl)amino)propyl)-5-(1-methyl-1H-pyrazol-4-yl)-3-phenylquinazolin-4(3H)-one], the bioavailability worked out at 104%.
